One assay deals with THP-1. Kind of assay: Cytotoxicity against human THP1 cells after 48 hrs by sulforhodamine B assay. It is filed as functional, cell-based. The following applies: THP-1, 48 h.
Assay [1] has as its target Transcription factor p65 (Homo sapiens) (UniProt Q04206). The assay can be described thus: Inhibition of NFkappaB p65 binding to consensus DNA sequence in human PC3 cells at 100 uM after 24 hrs by Western blotting analysis relative to control. It counts as cell-based. Conditions: PC-3. For orientation: In western blotting, separated proteins are transferred to a membrane and probed.

The test system of assay [2] is PC-3. The assay can be described thus: Cell cycle arrest in human PC3 cells assessed as accumulation at S phase at 5 uM after 24 hrs by propidium iodide staining-based flow cytometric analysis (reference value: 8.5%). It is filed as functional.
Assay [3] deals with PC-3. Kind of assay: Cell cycle arrest in human PC3 cells assessed as accumulation at S phase at 1 uM after 24 hrs by propidium iodide staining-based flow cytometric analysis (reference value: 8.5%). It counts as functional.
The test system of assay [4] is PC-3. Kind of assay: Cell cycle arrest in human PC3 cells assessed as accumulation at M phase at 5 uM after 24 hrs by propidium iodide staining-based flow cytometric analysis (reference value: 3%). It is filed as functional. In general terms: Flow cytometry measures light scatter and fluorescence of single cells or particles in a stream.
Another assay concerns A549. The assay can be described thus: Cytotoxicity against human A549 cells after 48 hrs by sulforhodamine B assay. It counts as functional, cell-based. Conditions: A549, 48 h.
Assay [5] has as its system PC-3. The assay can be described thus: Cell cycle arrest in human PC3 cells assessed as accumulation at S phase at 10 uM after 24 hrs by propidium iodide staining-based flow cytometric analysis (reference value: 8.5%). It is filed as functional.
Assay [6] deals with PC-3. Kind of assay: Cell cycle arrest in human PC3 cells assessed as accumulation at G0/G1 phase at 5 uM after 24 hrs by propidium iodide staining-based flow cytometric analysis (reference value: 68.2%). It counts as functional.
Assay [7] deals with Transcription factor p65 (Homo sapiens) (UniProt Q04206). The assay can be described thus: Inhibition of NFkappaB p65 binding to consensus DNA sequence in human PC3 cells at 100 uM after 24 hrs by ELISA relative to control. It counts as cell-based. Conditions: PC-3. For orientation: In an ELISA, binding on a coated surface is turned into a signal by an enzyme label.
Assay [8] deals with PC-3. The assay can be described thus: Cell cycle arrest in human PC3 cells assessed as accumulation at G0/G1 phase at 10 uM after 24 hrs by propidium iodide staining-based flow cytometric analysis (reference value: 68.2%). It is filed as functional.
A further assay has as its system HeLa. The assay can be described thus: Cytotoxicity against human HeLa cells after 48 hrs by sulforhodamine B assay. It is filed as functional, cell-based.
Assay [9] in a line: Cytotoxicity against human HCT15 cells after 48 hrs by sulforhodamine B assay. It is filed as functional, cell-based. The following applies: HCT-15, 48 h.
The next assay has as its system MCF7. The assay can be described thus: Cytotoxicity against human MCF7 cells after 48 hrs by sulforhodamine B assay. It is filed as functional, cell-based. The following applies: MCF7, 48 h.
Assay [10] has as its system PC-3. The assay can be described thus: Cell cycle arrest in human PC3 cells assessed as accumulation at G0/G1 phase at 1 uM after 24 hrs by propidium iodide staining-based flow cytometric analysis (reference value: 68.2%). It counts as functional.
The target of assay [11] is Transcription factor p65 (Homo sapiens) (UniProt Q04206). Kind of assay: Inhibition of NFkappaB p65 binding to consensus DNA sequence in human PC3 cells after 24 hrs by ELISA. It counts as cell-based. Conditions: PC-3.
Assay [12] concerns PC-3. The assay can be described thus: Cell cycle arrest in human PC3 cells assessed as accumulation at sub-G1 phase after 24 hrs by propidium iodide staining-based flow cytometric analysis. It is filed as functional.
In assay [13] the test system is PC-3. Kind of assay: Cell cycle arrest in human PC3 cells assessed as accumulation at M phase at 1 uM after 24 hrs by propidium iodide staining-based flow cytometric analysis (reference value: 3%). It is filed as functional.
The target of assay [14] is Transcription factor p65 (Homo sapiens) (UniProt Q04206). The assay can be described thus: Inhibition of NFkappaB p65 binding to consensus DNA sequence in human PC3 cells after 24 hrs by Western blotting analysis. It is filed as cell-based. Conditions: PC-3.
For assay [15], the system named is PC-3. Kind of assay: Cell cycle arrest in human PC3 cells assessed as accumulation at sub-G1 phase at 10 uM after 24 hrs by propidium iodide staining-based flow cytometric analysis (reference value: 13.1%). It counts as functional.
In assay [16] the test system is PC-3. The assay can be described thus: Cell cycle arrest in human PC3 cells assessed as accumulation at sub-G1 phase at 1 uM after 24 hrs by propidium iodide staining-based flow cytometric analysis (reference value: 13.1%). It is filed as functional.
Assay [17] has as its system PC-3. Kind of assay: Cell cycle arrest in human PC3 cells assessed as accumulation at M phase at 10 uM after 24 hrs by propidium iodide staining-based flow cytometric analysis (reference value: 3%). It is filed as functional.
Assay [18] deals with PC-3. The assay can be described thus: Cytotoxicity against human PC3 cells after 48 hrs by sulforhodamine B assay. It is filed as functional, cell-based. The following applies: PC-3, 48 h.
Assay [19] concerns PC-3. The assay can be described thus: Cell cycle arrest in human PC3 cells assessed as accumulation at sub-G1 phase at 5 uM after 24 hrs by propidium iodide staining-based flow cytometric analysis (reference value: 13.1%). It is filed as functional.

Transcription factor p65 (Homo sapiens), sequence (Q04206 whole entry): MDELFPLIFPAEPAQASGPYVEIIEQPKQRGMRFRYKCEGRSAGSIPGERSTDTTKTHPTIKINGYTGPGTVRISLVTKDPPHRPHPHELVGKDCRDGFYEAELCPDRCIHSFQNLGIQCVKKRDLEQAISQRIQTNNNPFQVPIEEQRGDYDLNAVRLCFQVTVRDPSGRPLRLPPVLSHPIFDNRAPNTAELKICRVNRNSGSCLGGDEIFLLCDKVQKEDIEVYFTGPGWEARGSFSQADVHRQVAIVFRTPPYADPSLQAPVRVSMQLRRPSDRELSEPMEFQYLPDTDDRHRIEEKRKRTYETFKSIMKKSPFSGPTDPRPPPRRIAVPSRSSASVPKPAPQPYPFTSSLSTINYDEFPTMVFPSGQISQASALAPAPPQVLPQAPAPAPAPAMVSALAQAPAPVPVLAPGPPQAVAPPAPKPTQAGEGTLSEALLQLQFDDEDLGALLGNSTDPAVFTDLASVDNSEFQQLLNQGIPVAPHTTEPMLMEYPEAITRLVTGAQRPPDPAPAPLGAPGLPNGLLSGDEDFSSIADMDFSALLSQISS

Take `C=C1C(=O)O[C@@H]2[C@H]1CC[C@H](C)[C@]1(O)[C@@H](n3cc(COc4ccccc4Cl)nn3)CC(=O)[C@@]21C`: the concentration for half-maximal inhibition (IC50) (commonly the concentration at which inhibition is half-maximal) in the assay with THP-1 was found to be 3.8 µM; in the assay on A549, 4.2 µM; in the assay on HeLa, 3.6 µM; in assay [9], 5.3 µM; with MCF7 it was 9.7 µM; in the assay with PC-3 [18] it was 3.1 µM. Further, the inhibition (as a rule, the drop in the measured response relative to a control, in per cent) in assay [1] was 80%; in [7], 80%; in assay [11], “Dose-dependent effect”; in assay [14], “Dose-dependent effect”. The Activity in the assay with PC-3 [2] came to 3.5%; with PC-3 [3], 4.2%; in the assay on PC-3 [4], 1.9%; in the assay on PC-3 [5] it was 3%; in the assay with PC-3 [6] it was 51.2%; in the assay on PC-3 [8] it was 50.7%. For the same compound, the Activity with PC-3 [10] was 52.3%; with PC-3 [12], “Dose-dependent effect”; in the assay on PC-3 [13], 1%; in the assay with PC-3 [15], 49.2%; in the assay with PC-3 [16] it was 38.8%; in the assay with PC-3 [17], 1%. The Activity in the assay on PC-3 [19] came to 39.9%.

Regarding `CC[C@@]1(O)C(=O)OCc2c1cc1n(c2=O)Cc2cc3ccccc3nc2-1` [CAMPTOTHECIN], the Activity with PC-3 [2] is listed as 4.94%; with PC-3 [4] it was 4.76%; in the assay on PC-3 [6], 30.17%; in the assay on PC-3 [19], 60.44%.
